The values that follow are results of earlier work, collected in the PKSmart pharmacokinetics tables (Seal et al. 2025).

Usually clearance stands for a measure of how efficiently the substance is removed, as volume per time. By Vd is commonly meant a proportionality between amount in the body and measured concentration, not a real space. Usually half-life stands for the time in which the quantity being followed falls by half.

The data set is described as follows: not given per row; by the article one of three: Lombardo et al. 2013, J Clin Pharmacol 53:178, doi 10.1177/0091270012440282; 'New Drugs at FDA', novel drug approvals for 2021 and 2022 (the article's reference 43); Yap, Li, Chen 2006, J Mol Graph Model 24:383, doi 10.1016. The note with it: human; in vivo.
Consider `OCC(O)CO`, for which the clearance was 3.55 mL/min/kg.

As to `CCC1=C(C)CN(C(=O)NCCc2ccc(S(=O)(=O)NC(=O)NC3CCC(C)CC3)cc2)C1=O` (configuration not stated), the clearance is 0.76 mL/min/kg.

With `Nc1ccn(C[C@H](CO)OCP(=O)(O)O)c(=O)n1`, the clearance was 2.3 mL/min/kg.

`COc1cc2nccc(Oc3ccc(NC(=O)Nc4cc(C)on4)c(Cl)c3)c2cc1OC`: the distribution volume (Vd) was 2.05 L/kg, the clearance is 0.21 mL/min/kg and the half-life is 111 h.

Turning to `Cc1ccc(-c2cc(C(F)(F)F)nn2-c2ccc(S(N)(=O)=O)cc2)cc1`, the clearance was 7.59 mL/min/kg.

As to `CN[C@H]1CCc2[nH]c3ccc(C(N)=O)cc3c2C1`, the clearance was 3.09 mL/min/kg.

Take `COc1ccc2c(c1)N[C@@H]([S@@+](O)Cc1ncc(C)c(OC)c1C)N2`: the clearance was 3.81 mL/min/kg.

Consider `C[C@H](CC(c1ccccc1)c1ccccc1)NC(C)(C)C`, for which the clearance was 0.95 mL/min/kg.

Consider `CN(C)CCOc1ccc(/C(=C(\CCCl)c2ccccc2)c2ccccc2)cc1`, for which the clearance is 1.21 mL/min/kg.

Take `C=CC(=O)N1CC[C@H](n2nc(C#Cc3cc(OC)cc(OC)c3)c3c(N)ncnc32)C1`: the Vd was 1.1 L/kg, the clearance was 5.56 mL/min/kg and the half-life is 2.9 h.

For the compound `O=C(O)c1ccccc1Nc1cccc(C(F)(F)F)c1`, the clearance was 1.43 mL/min/kg.

As for `O=C1CN2Cc3c(ccc(Cl)c3Cl)N=C2N1`, the clearance was 2.14 mL/min/kg.

`Cc1ccc(NC(=O)C2CCCN(C(=O)c3c(C)cccc3F)[C@H]2c2ccc(NC3CCCC3)cc2)cc1C(F)(F)F` (some centres not stated): the Vd was 5.75 L/kg, the clearance is 4.53 mL/min/kg and the half-life was 97.6 h.

`C[C@@H](CCc1ccc(O)cc1)NCCc1ccc(O)c(O)c1`: the clearance was 59 mL/min/kg.

In the case of `Cc1cccc(C)c1OC[C@@H](C)N`, the clearance is 6.3 mL/min/kg.

On to `COCc1c(C(=O)OC(C)C)ncc2[nH]c3ccc(OCc4ccccc4)cc3c12`, for which the clearance is 13 mL/min/kg.

For the compound `CN1CCN(c2ccc(Nc3ncc4cc5n(c4n3)C3(CCCCC3)CNC5=O)nc2)CC1`, the Vd is 18.8 L/kg, the clearance is 41.7 mL/min/kg and the half-life was 14 h.

Turning to `C=c1c(N)c(O)c2c(c1O)N1C[C@@H]3N[C@@H]3[C@@]1(OC)C=2COC(N)=O`, the clearance is 8.23 mL/min/kg.

For the compound `O=C(NC(C(=O)NC1C(=O)N2C(C(=O)O)C(=C[n+]3ccc(CCS(=O)(=O)[O-])cc3)CSC12)c1ccccc1)c1nc[nH]c1C(=O)O` (configuration not stated), the Vd was 0.21 L/kg and the clearance is 1.7 mL/min/kg.

For the compound `Cc1cc(O)c(C(=O)NC(C(=O)NC2C(=O)N3C(C(=O)O)=C(CSc4nnnn4C)CS[C@H]23)c2ccc(O)cc2)cn1` (some centres not stated), the clearance is 0.28 mL/min/kg.

For the compound `CC(C)N(CC[C@@](C(N)=O)(c1ccccc1)c1ccccn1)C(C)C`, the clearance was 2.7 mL/min/kg.

For the compound `CCOC(=O)NC1=C(N2CC2)C(=O)C(NC(=O)OCC)=C(N2CC2)C1=O`, the clearance was 11 mL/min/kg.

Take `CC(C)CC(NC(=O)C(Cc1ccccc1)NC(=O)C(N)Cc1ccccc1)C(=O)NC(CCCCN)C(=O)N1CCC(N)(C(=O)O)CC1` (configuration not stated): the clearance is 3.97 mL/min/kg.

With `C[C@H](CN1CCN(CCOCCO)CC1)CN1c2ccccc2Sc2ccccc21`, the clearance is 17.5 mL/min/kg.

In the case of `CCOc1ncc(C)c2c1[C@H](c1ccc(C#N)cc1OC)C(C(N)=O)C(C)=N2` (some centres not stated), the volume of distribution (Vd) was 0.88 L/kg, the clearance is 6.94 mL/min/kg and the half-life was 2.5 h.

With `O=C(O)c1cc(O)c2c(c1)C(=O)c1cccc(O)c1C2=O`, the clearance was 0.38 mL/min/kg.

As for `C[C@@H]1c2cccc(O)c2C(=O)C2=C(O)[C@]3(O)C(=O)C(C(N)=O)=C(O)[C@H](N(C)C)[C@H]3[C@H](O)[C@H]21`, the clearance is 0.52 mL/min/kg.

Regarding `CCCCCOC(=O)Nc1nc(=O)n([C@@H]2O[C@H](C)[C@@H](O)[C@H]2O)cc1F`, the clearance is 59.7 mL/min/kg.

As to `Oc1ccc(CCNCCCCCCNCCc2ccccc2)cc1O`, the clearance was 36 mL/min/kg.

Take `COC(=O)C(c1ccccc1)[C@@H]1CCCCN1` (some centres not stated): the clearance is 9.44 mL/min/kg.

Regarding `CCCCC[C@H](O)CC[C@@H]1C2Cc3cccc(OCC(=O)O)c3C[C@@H]2C[C@@H]1O` (some centres not stated), the clearance is 7.14 mL/min/kg.

For the compound `Nc1nc(F)nc2c1ncn2[C@@H]1O[C@@H](COP(=O)(O)O)[C@@H](O)[C@@H]1O`, the clearance was 3.7 mL/min/kg.

Consider `C[C@@H]1C[C@H]2[C@@H]3C[C@H](F)C4=CC(=O)C=C[C@]4(C)[C@@]3(F)[C@H](O)C[C@]2(C)[C@@]1(O)C(=O)SCF`, for which the clearance was 15.6 mL/min/kg.

With `O=[P@@]1(NCCCl)OCCCN1CCCl`, the clearance was 1.23 mL/min/kg.

Regarding `O=C1CC2(CCCC2)CC(=O)N1CCCCN1CCN(c2ncccn2)CC1`, the clearance is 28.3 mL/min/kg.

In the case of `C[C@@H]1[C@H](c2c(F)ccc(F)c2F)CC(NC(=O)c2cnc3c(c2)C[C@@]2(C3)C(=O)Nc3ncccc32)C(=O)N1CC(F)(F)F` (some centres not stated), the Vd is 4.87 L/kg, the clearance was 5.28 mL/min/kg and the half-life is 11 h.

For `CCOCCn1c(N2CCCN(C)CC2)nc2ccccc21`, the clearance was 12.5 mL/min/kg.

Take `CC(C)(C)NC[C@@H](O)COc1cccc2c1SCCC2`: the clearance is 1.86 mL/min/kg.

In the case of `Cc1ccccc1OC[C@@H](O)CNCCOc1ccc(C(N)=O)cc1`, the clearance was 10.8 mL/min/kg.

On to `COc1ccnc(C[S@@+](O)c2nc3cc(OC(F)F)ccc3[n-]2)c1OC`, for which the clearance was 2.57 mL/min/kg.

Take `CN=C1CN(O)C(c2ccccc2)=c2cc(Cl)ccc2=N1`: the volume of distribution (Vd) was 0.25 L/kg.

Regarding `CC(C)Oc1ccc(-c2nn([C@@H](C)c3oc4ccc(F)cc4c(=O)c3-c3cccc(F)c3)c3ncnc(N)c23)cc1F`, the Vd was 5.2 L/kg, the clearance is 4.31 mL/min/kg and the half-life is 91 h.

Consider `CNS(=O)(=O)CCC1CCC2[N]CC(C3CCN(C)CC3)C2C1` (configuration not stated), for which the clearance is 6.35 mL/min/kg.

For `CN(C/C=C/C#CC(C)(C)C)Cc1cccc2ccccc12`, the clearance was 17.9 mL/min/kg.

With `CC(C(=O)O)c1ccc2oc(-c3ccc(Cl)cc3)nc2c1` (configuration not stated), the clearance is 0.07 mL/min/kg.

Take `O=C(Cn1ccnc1[N+](=O)[O-])NCCO`: the clearance is 1.73 mL/min/kg.

In the case of `CC(=O)N(C[C@H](O)CO)c1c(I)c(C(=O)NCCO)c(I)c(C(=O)NC[C@H](O)CO)c1I`, the clearance was 1.44 mL/min/kg.
